Literature values, collected in patent publication US20190269627A1, “MEMANTINE COMBINATIONS AND USE” (Chase Pharmaceuticals Corporation, priority 2016, published 2019).

Tested on: mice
Conditions: 2 mg/kg

CC12CC3CC(C)(C1)CC(N)(C3)C2 [memantine, 3,5-dimethyladamantan-1-amine]
effect on scopolamine-induced learning deficits in the water maze: reverses scopolamine-induced learning deficits
